Results on 1 molecule are retold here after PMC8252455, “Prediction of a clinically effective dose of THY1773, a novel V 1B receptor antagonist, based on preclinical data” (Biopharmaceutics & Drug Disposition, 2021).

One may read the Ki as the equilibrium dissociation constant of an inhibitor or competing ligand from its target. The low end stands for a stronger hold on the target, the high end for a looser hold on the target.

Structures are written as SMILES.

Data set [1] concerns the target T1, rat anterior pituitary membrane V1B receptor (Rattus norvegicus, UniProt P48974).
T1 construct: rat anterior pituitary membrane V1B receptor; from tissue; host or cells: rat anterior pituitary membranes
T1 sequence (P48974 1-425): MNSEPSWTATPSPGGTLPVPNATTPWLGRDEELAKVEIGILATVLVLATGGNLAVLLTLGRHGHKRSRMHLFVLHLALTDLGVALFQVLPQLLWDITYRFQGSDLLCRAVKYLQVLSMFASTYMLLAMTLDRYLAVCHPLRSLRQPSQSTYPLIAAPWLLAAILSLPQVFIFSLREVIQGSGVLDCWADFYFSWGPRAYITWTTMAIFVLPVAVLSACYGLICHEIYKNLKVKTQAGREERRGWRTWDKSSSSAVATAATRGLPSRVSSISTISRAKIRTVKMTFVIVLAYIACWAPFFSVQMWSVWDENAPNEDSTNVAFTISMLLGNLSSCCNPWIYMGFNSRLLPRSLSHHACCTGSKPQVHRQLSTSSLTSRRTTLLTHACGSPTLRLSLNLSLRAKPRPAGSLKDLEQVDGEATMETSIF
The data set is described as follows: In vitro binding, rat anterior pituitary membrane V1B receptor. The settings on record: unpublished data.

Data set [2] concerns depressive-like behavior. Details: method as in Kamiya et al., 2020. The settings on record: ref Kamiya et al., 2020; cited from earlier work.
For data set [3], the system named is anterior pituitary V1B receptor. Also on record: method as in Kamiya et al., 2020. The settings on record: rats; ref Kamiya et al., 2020; cited from earlier work.
A short description of data set [4]: Blood-to-plasma ratio in rat whole blood. In kind it is in vitro ADME. The settings on record: 1 μmol/L. As to the method: The blood‐to‐plasma ratios of THY1773 were analyzed using pooled fresh whole blood (anticoagulant: EDTA‐2K) and control plasma separated from fresh whole blood in parallel from rats, dogs, and humans. Whole blood and control plasma containing 1 μmol/L THY1773 were incubated at 37°C for 30 min in a shaking water bath. The incubated whole blood was centrifuged at 2000 × g for 10 min at 4°C to obtain plasma. An aliquot of each plasma sample (i.e., isolated plasma from incubated whole blood and control plasma) was mixed with 8 volumes of acetonitrile/methanol (9:1, vol/vol) containing the IS. After centrifugation at 3974 × g for 10 min at 4°C, the supernatant was subjected to liquid chromatography/tandem mass spectrometry (LC‐MS/MS) analysis. The blood‐to‐plasma ratio was calculated by dividing the […].

Data set [5] is described as follows: Metabolic stability in rat liver microsomes. In kind it is in vitro ADME. The settings on record: 1 μmol/L. Here is the method:
The oxidative metabolism of THY1773 was evaluated in rat and dog liver microsomes. THY1773 (1 μmol/L) was incubated with pooled liver microsomes (0.25 mg protein/ml) in sodium–potassium phosphate buffer (pH 7.4) consisting of 100 mmol/L sodium phosphate, 100 mmol/L potassium chloride, 2.5 mmol/L magnesium chloride (MgCl2), 1.5 mmol/L glucose‐6‐phosphate (G‐6‐P), and 0.18 units/ml G‐6‐P dehydrogenase (G‐6‐PDH). The reactions were initiated by the addition of β‐nicotinamide–adenine dinucleotide phosphate, oxidized form (NADP^+, 0.16 mmol/L), and incubated for 10, 20, 30, 40, 50, and 60 min. […] The intrinsic clearance (CLint) was calculated by the substrate depletion method described by Naritomi et al. (2001).
Since the CLliver was underestimated in rats and dogs from CLint in liver microsomes, the ratio of observed in vivo CLint and predicted CLint was calculated as the empirical scaling factor (ESF) for the extrapolation of CLliver from in vitro data. […] The total plasma clearance (CLtotal) was calculated by Equation (4): (4) CLtotal=QH×fu×(CLint/fu,mic)/QH+(fu/Rb)×(CLint/fu,mic)+CLrenal where QH is hepatic blood flow, fu is the free fraction in plasma, fu,mic is the fraction unbound in HLMs, Rb is blood‐to‐plasma ratio, and CLrenal is renal clearance. The fu,mic value was calculated using the Simcyp population based simulator (Version 16 R1; Simcyp Ltd.). […]

Data set [6] is described as follows: Distribution into brain and pituitary gland in rats. The class given is in vivo, rat. The settings on record: 1 h after oral 1 mg/kg. As to the method: The PK and urinary excretion of THY1773 in rats (1 mg/kg) and dogs (0.5 mg/kg) under fasted conditions were evaluated following intravenous or oral administration of THY1773. THY1773 was dissolved in 10% (vol/vol) hydroxypropyl‐β‐cyclodextrin at pH 4 for intravenous administration, or suspended in 0.5% (wt/vol) methyl cellulose 400 for oral administration. After a single intravenous or oral administration of THY1773, blood samples were collected into tubes containing EDTA‐2K as an anticoagulant. The scheduled time points were predose (dog only), 5 (intravenous only), 15, 30 min, 1, 2, 4, 8, 12, and 24 h postdose. Plasma was separated by centrifugation. Urine samples were collected into bottles set on ice for 24 h after intravenous administration of THY1773. Plasma and urine samples were treated with 4 volumes of acetonitrile/methanol (9:1, vol/vol) containing the IS. After centrifugation (3639 × g, 4°C, 10 min) to remove precipitated proteins, the supernatant was subjected to LC‐MS/MS analysis. The distributions of THY1773 into brain and pituitary gland in rats were investigated after a single oral administration of THY1773 (1 mg/kg). Blood was collected from the tail vein into tubes containing EDTA‐2K at 1 h after a single oral administration of THY1773, and the plasma was separated by centrifugation (12000 × g, 4°C, 3 min). […]

Turning to `CC(C)NC(=O)Cn1c(-c2cccc(Cl)c2)nn(-c2ccc(CCN3CCOCC3)cc2)c1=O` [THY1773], the inhibitory constant (Ki) in data set [1] amounted to 80.1 nM. Besides, in data set [2], the “Effect on depressive-like behavior induced by repeated corticosterone injection” value is recorded as “significantly improved”. Further, in data set [3], the “Occupancy of anterior pituitary V1B receptor after oral administration” value is given as “dose‐dependently”. Also, the Blood-to-plasma ratio in data set [4] was found to be 0.822. In addition, in data set [5], the “CLint in liver microsomes” value is 22.0 μL/min/mg protein. In addition, in data set [6], the “Concentration ratio of brain to plasma” value came to 0.2 and the “Concentration ratio of pituitary gland to plasma” value stood at 4.7.
